Results on one molecule are retold here after patent US5134150A, “Inhibition of the 5-lipoxygenase pathway” (priority 1989, dated 1992).

Test [1] has as its system Arachidonic Acid-Induced Cellular Infiltration into the Rat Air Pouch. The test is described as follows: Arachidonic acid-induced air pouch inflammation. The class given is in vivo, rat (male Lewis). The source says: (§1) In the following Examples where mice were used, they were male Balb/c mice (20-28 g), and where rats were used, they were male Lewis rats (180-210 g). All mice and rats were obtained from Charles River Breeding Laboratories, Kingston, N.Y. Within a single experiment, mice and rats were sex and age matched.
(§2) The compounds of Formula (I) were used either as the free base or in the appropriate salt form. Levamisole was used as the hydrochloride salt. The compounds were homogenized in 0.5% tragacanth. Compounds were administered by gavage at the indicated dose in a final volume of 10 ml/kg. Nordihydroguaiaretic acid (NDGA) was solubilized in dimethylacetamide and diluted with olive oil for subcutaneous administration.
(§3) Rats were shaved on the dorsal flank, and then injected subcutaneously one day later with 20 ml of air to form a defined pouch, by the method of Sedgwick et al., J. Pathology, 141, 483-495 (1983). The air pouch was reinflated as necessary over the next 6 days. To assay anti-inflammatory activity, animals were treated orally with test compound or vehicle (10 ml/kg) one hour before injection of 2.0 ml of a 2.0% carrageenan suspension containing […] penicillin and 100 µg/ml streptomycin into the air pouch. In other experiments, 5 ml of 0.1% arachidonic acid in 0.2M bicarbonate buffer was injected two hours after drug treatment. Animals were sacrificed using CO2 three hours after instillation of irritant. The exudate was then aspirated from the pouch and neutrophil count and differential cell count were measured.

For the next test, the target named is T1, Cyclooxygenase (Rattus norvegicus, UniProt Q63921).
T1 construct: The activities of these enzymes in extracts of RBL-1 cells were assayed; host or cells: RBL-1
T1 sequence (Q63921 27-602): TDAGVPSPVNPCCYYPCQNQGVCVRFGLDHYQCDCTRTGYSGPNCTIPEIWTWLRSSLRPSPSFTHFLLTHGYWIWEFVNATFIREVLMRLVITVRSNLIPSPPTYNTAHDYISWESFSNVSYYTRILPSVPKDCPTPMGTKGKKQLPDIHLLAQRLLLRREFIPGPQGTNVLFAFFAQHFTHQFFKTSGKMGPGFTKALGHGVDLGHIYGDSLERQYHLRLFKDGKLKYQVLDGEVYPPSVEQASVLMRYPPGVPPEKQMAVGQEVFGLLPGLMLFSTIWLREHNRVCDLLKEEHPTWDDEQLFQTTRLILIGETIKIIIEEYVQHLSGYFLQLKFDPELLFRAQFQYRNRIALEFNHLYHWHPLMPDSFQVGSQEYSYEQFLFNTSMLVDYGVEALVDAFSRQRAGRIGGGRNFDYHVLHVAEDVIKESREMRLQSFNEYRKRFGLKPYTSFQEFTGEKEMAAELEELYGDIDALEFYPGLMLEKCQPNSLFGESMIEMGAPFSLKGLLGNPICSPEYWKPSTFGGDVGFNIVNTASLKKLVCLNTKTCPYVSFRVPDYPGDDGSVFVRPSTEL
The test is described as follows: Cyclooxygenase activity (PGD2) in RBL-1 cell extracts, 10,000 x g supernatant. The class given is biochemical. Conditions: Table 8.

Test [2] relates to Arachidonic Acid-Induced Rat Paw Edema. The test is described as follows: Arachidonic acid-induced rat paw swelling. The class given is in vivo, rat (male Lewis).
Description: as §1
Auranofin, phenidone, indomethacin, naproxen, and ibuprofen were each used as the free base. The compounds of Formula (I) were used either as the free base or in the appropriate salt form. Levamisole was used as the hydrochloride salt. The compounds were homogenized in 0.5% tragacanth. Compounds were administered by gavage at the indicated dose in a final volume of 10 ml/kg. Nordihydroguaiaretic acid (NDGA) was solubilized in dimethylacetamide and diluted with olive oil for subcutaneous administration.
After determining pretreatment paw volumes by plethysmography by the method of Webb and Griswold, J. Pharmacol. Methods, 12, 149-153 (1984), rats were given test compound or vehicle one hour prior to the subplantar injection of 0.1 ml of 1 mg/ml arachidonic acid. Paw volumes were then remeasured and compared to pretreatment values and the increase in paw volume was expressed as mean values ± S.D.

Test [3] deals with Infiltration of Polymorphonuclear Leukocytes into Sites of Carrageenan-Induced Inflammation. The test is described as follows: Mouse carrageenan peritonitis (PMN infiltration). The class given is in vivo, mouse (male Balb/c). As to conditions: carrageenan peritonitis, mice.
Description: as §1, §2
Mice were pretreated with either the test compound or vehicle one hour before the intraperitoneal injection of a 1.0% carrageenan suspension in saline (0.2 ml/mouse). Mice were sacrificed by cervical dislocation two hours after injection, and 3.0 ml of phosphate buffered saline, without Ca^++ or Mg^++, was injected into the peritoneum. Following massage, a 2.0 ml aliquot of the lavage fluid was removed, and the total cell count determined on a Coulter counter and differential cell count determined by microscopic examination of Giesma-stained slides.

Test [4] has as its system Carrageenan-Induced Cellular Infiltration into the Rat Air Pouch. The test is described as follows: Carrageenan-induced air pouch inflammation. The class given is in vivo, rat (male Lewis).
Description: as §1, §2, §3

Test [5] has as its system LTB4 synthesis by peritoneal exudate cells. The test is described as follows: Ex vivo production of LTB4 from peritoneal exudate cells of drug-treated mice. The class given is in vivo, mouse. As to conditions: for inhibition at 200 mg/kg: Mus musculus, po, 200 mg/kg p.o. An excerpt: In the following Examples where mice were used, they were male Balb/c mice (20-28 g), and where rats were used, they were male Lewis rats (180-210 g). All mice and rats were obtained from Charles River Breeding Laboratories, Kingston, N.Y. Within a single experiment, mice and rats were sex and age matched. Auranofin, phenidone, indomethacin, naproxen, and ibuprofen were each used as the free base. The compounds of Formula (I) were used either as the free base or in the appropriate salt form. Levamisole was used as the hydrochloride salt. […] Nordihydroguaiaretic acid (NDGA) was solubilized in dimethylacetamide and diluted with olive oil for subcutaneous administration. Carrageenan-induced peritoneal exudate cells from normal or drug-treated mice were washed and suspended in 2.2 ml of phosphate buffered saline. […] The cell preparation was centrifuged at 1500 rpm for 10 min and the supernatant was extracted using a C-18 silica column. […] A tetrahydrofuran, methanol, water, acetic acid (25:30:45: 0.1) solvent system, adjusted to pH 5.5 with ammonium hydroxide, was used at a flow rate of 0.7 ml/min. Cell derived LTB4 was quantified utilizing standard curves constructed with known amounts of synthetic LTB4.

Description for Cyclooxygenase: For in vitro experiments, compounds were dissolved at appropriate concentrations in ethanol or DMSO (dimethylsulfoxide) (final concentration≤1.0%) and then diluted to final concentrations using the buffers indicated in the text.
RBL-1 cells were obtained from the American Type Culture Collection (#CRL 1378) and were grown at 37° C. (5% CO2 in air) in spinner culture in MEM supplemented with 10% heat inactivated fetal calf serum. Harvested cells were washed with 50 mM sodium phosphate buffer, pH 7.0, containing 1 mM EDTA and 0.1% gelatin, resuspended in fresh buffer (5×10^7 cells/ml) and disrupted by nitrogen cavitation using the Parr bomb at 750 psi for 10 min. The broken cell extract was then centrifuged at 10,000× g for 20 minutes (min) and the supernatant centrifuged at 100,000 xIg for 60 min. Aliquots (0.25 mls) of the supernatant were preincubated with or without drugs for 10 min, after which 10 μl CaCl2 (50 mM) was added and the reaction was initiated with 2.5 μl of 2.5 mM arachidonic acid-1-^14 C (final concentration was 25 μM; specific activity 20,000 dpm/nmole). After incubation for 3 min at 37° C., the reaction was terminated by addition of 2 volumes (0.5 ml) ice cold acetone and the sample was allowed to deproteinize on ice for 10 min prior to centrifugation at 1,000× g for 10 min. […] Arachidonic acid, 5-HETE, LTB4 and PGD2 were quantified with a Berthold LB 2832 autoscanner.

What is called inhibition is the change of the read-out against control, counted positive when it falls. A low value points to a weak effect. `O=C1CCN(c2ccccc2)N1` [Phenidone]: in test [1] (100 mg/kg), the “Cellular Infiltrate MN” value is on record as 2.2 ± 1.5 Total × 10^-6, the “Cellular Infiltrate PMN” value stood at 1.3 ± 0.8 Total × 10^-6 and the “Exudate Volume” value came to 2.8 ± 0.4 mL. Besides, in test [1] (rat, in vivo), the “Cell infiltration into arachidonic acid air pouch, result in words” value is “significantly reduced PMN and mononuclear cell infiltration”. Further, the “IC50 Cyclooxygenase” value against Cyclooxygenase is recorded as “Inactive @ 100”. In addition, the “Change in Paw Volume” value in test [2] (100 mg/kg, 2 hours post arachidonic acid) was determined as 0.13 ± 0.05 mL. The “Rat paw inflammatory response, result in words” value in test [2] (rat, in vivo) is “inhibited significantly”. The “PMN infiltration, result in words” value in test [3] is reported as “effective”. In test [4] (100 mg/kg), the “Cellular Infiltrate MN” value was 3.5 ± 1.4 Total × 10^-6, the “Cellular Infiltrate PMN” value came to 1.7 ± 0.6 Total × 10^-6 and the “Exudate Volume” value was 1.5 ± 0.8 mL. For the same molecule, the “Cell infiltration into carrageenan air pouch, result in words” value in test [4] (rat, in vivo) was “reduction in the PMN count and the PMN:mononuclear cell ratio”. Further, at 200 mg/kg the inhibition in test [5] (Experiment 2) was 21%. For the same molecule, in test [5] (Experiment 3), the inhibition at 200 mg/kg was 33%. Besides, in test [5] (mouse, in vivo), the “LTB4 production ex vivo, result in words” value was “weaker but inhibition of LTB4 synthesis”.
